Measured values as given in US20160151412A1, “COMBINATION OF XENON WITH AN NMDA RECEPTOR ANTAGONIST FOR FIGHTING A NEURODEGENERATIVE DISEASE” (L'AIR LIQUIDE, SOCIETE ANONYME POUR L'ETUDE ET …, priority 2013, published 2016).

Test system: rat cortex cultures (cortical neurons)
Assay: Neuronal survival (MAP-2 positive cell counts) in rat cortex cultures with PDC-induced chronic cortical degeneration under controlled gas atmosphere
Format: cell-based
Design: key to Neuronal survival: +++=reference level; ++: a favorable response, synonymous with a decrease in neuronal cell death in the presence of the treatments of interest; +: a favorable response, synonymous with a decrease in neuronal cell death in the presence of the treatments of interest; an unfavorable response is represented by a “−” sign, synonymous with an increase in neuronal death
Procedure: Cultures are prepared from rat embryo cortex taken from Wistar rates, on day 15.5 of gestation. The method for obtaining cortex cultures comprises the preparation of a homogeneous cell suspension by mechanical, i.e., non-enzymatic, dissociation of embryonic tissue using Leibovitz's L15 medium (Sigma Aldrich). Aliquots of this suspension are added to Nunc 48-well plates coated beforehand with a thin layer of polyethylenimine (1 mg/ml, borate buffer, pH 8.3) to allow neuronal cells to adhere (see Toulorge et al., Faseb J, 2011). The seeding density is between about 20,000 and 30,000 cells/cm^2. The cortex cultures are maintained in Neurobasal culture medium containing an […] B27 cocktail, N2 supplement, glutamine (2 mM) and a penicillin/streptomycin cocktail (see Nafia et al., J Neurochem, 2008). The medium and the supplement are available from Life Technologies. Six hours after placing in culture, 0.5 μM of the antimitotic cytarabine (Sigma Aldrich) is added to limit the proliferation of astrocytes. Until the moment when the effects of the gases of interest are evaluated, the cultures are placed in a conventional enclosure thermostated at 37° C., wherein CO2 is maintained at 5% by volume and the atmosphere is saturated with water. The culture medium is not changed during the culture period. The degenerative process is triggered by applying a glutamate reuptake system blocker, PDC (Zuiderwijk et al., Europ J Pharmacol, 1994). The NMDA receptor blocker, memantine, is added to the cultures before the application of PDC. These two products (PDC and memantine) are from RD Systems. Once the pharmacological treatments are carried out, the multi-well plates containing the cells in culture and the plate used for humidification of the internal compartment of the chamber are placed on a metal base that receives the Plexiglas incubation chamber. The two parts (base and Plexiglas chamber) are screwed together in a joined manner. A gas mixture of interest comprising (% by volume): 20% O2, 5% CO2 and 75% of the gas tested is then injected into the incubation chamber, with inlet and outlet valves open, while controlling the outlet flow by means of a flowmeter. The gases tested are nitrogen and xenon. The reference outlet flow, set for air at 10 liters/minute, is corrected as a function of the density of the mixture used. When the CO2 measurement at the outlet reaches 5%, the injection of the gas mixture is stopped and the chamber is completely sealed by closing the inlet and outlet valves. The exposure chamber is then placed in a 37° C. enclosure throughout the experimental protocol. After breaking the seal by opening the inlet and outlet valves and unscrewing the chamber from its base, the cultures are fixed with 4% formaldehyde in PBS for 12 minutes and then incubated at 4° C. with a monoclonal anti-MAP-2 antibody (dilution 1:200; clone AP-20; Sigma-Aldrich) for 3 days. This antibody is detected with an anti-mouse secondary antibody coupled with cyanine-3 (Sigma Aldrich; dilution 1:1000 in PBS). Image capturing is carried out with the 10× objective using a Nikon TE-300 inverted microscope equipped with an ORCA-ER cooled digital camera and HCl image capturing software (Hamamatsu). […] The cultures are then collected for fixing and analysis. Neuronal survival is quantified in the various experimental conditions tested by counting the number of cell bodies immunopositive for the pan-neuronal marker MAP-2.

Compound: CC12CC3CC(C)(C1)CC(N)(C3)C2 [memantine]
- effect on neuronal survival (PDC 30 μM + memantine 0.1 μM alone, 75% nitrogen): no significant effect
- Neuronal survival (PDC 30 μM + memantine 0.1 μM, 75% N2, days 12-16): −
- survival rate (PDC 30 μM + memantine 1 μM by itself, 75% nitrogen): 54.6%
- Neuronal survival (PDC 30 μM + memantine 1 μM, 75% N2, days 12-16): ++
- neuronal cells saved (PDC 30 μM + memantine 10 μM itself, 75% nitrogen): more than 90%
- Neuronal survival (PDC 30 μM + memantine 10 μM, 75% N2, days 12-16): +++

Compound: [Xe] [Xe, xenon]
- Neuronal survival (PDC 30 μM, 75% Xe, days 12-16): ++
- effect on neuronal survival versus nitrogen-alone condition (ANOVA, Student-Newman-Keuls, p<0.05) (PDC 30 μM, 75% xenon without memantine, n=6): significantly superior to that of the nitrogen-alone condition
- Neuronal survival (no PDC, 20% O2 + 5% CO2 + 75% Xe, days 12-16, day-16 cortex cultures): +++

Compound: O=C(O)[C@H]1CN[C@H](C(=O)O)C1 (relative stereo) [PDC, L-trans-pyrrolidine-2,4-dicarboxylic acid]
- Neuronal survival (PDC 30 μM, 75% N2, days 12-16): −
- loss of cortical neuronal cells (PDC 30 μM, 75% nitrogen): about 85%
- survival rate (PDC 30 μM, 75% nitrogen, % of cultures not treated with PDC under 75% nitrogen): 15.9%
